Experimental data published in the supplement of paper PMC10307832.

Assays:
Experiment in all cases: relative viability (nuclei count vs DMSO), 5 days (fraction); higher = more cells survive
Quizartinib + Foretinib = compound: CC(C)(C)c1cc(NC(=O)Nc2ccc(-c3cn4c(n3)sc3cc(OCCN5CCOCC5)ccc34)cc2)no1 [Quizartinib] + COc1cc2c(Oc3ccc(NC(=O)C4(C(=O)Nc5ccc(F)cc5)CC4)cc3F)ccnc2cc1OCCCN1CCOCC1 [Foretinib] (partner 0.25 µM)
Procedure, shortened: (§1)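 Dosing by pin tool came one day after lung cancer cell lines were seeded in 1536-well plates, using either one drug or a fixed anchor-drug dose plus five library-drug doses (not always all listed) in √10 steps. After 5 days, nuclei were counted on 4× images. Relative viability is treated-well nuclei count divided by vehicle-well nuclei count, and values are medians of duplicate plates.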

YM155 + OSI-027 = compound: COCC[n+]1c2c(n(Cc3cnccn3)c1C)C(=O)c1ccccc1C2=O [YM155] + COc1cccc2cc(-c3nc([C@H]4CC[C@H](C(=O)O)CC4)n4ncnc(N)c34)[nH]c12 [OSI-027] (partner 0.5 µM)
Procedure, shortened: as §1

YM155 + Lapatinib = compound: COCC[n+]1c2c(n(Cc3cnccn3)c1C)C(=O)c1ccccc1C2=O [YM155] + CS(=O)(=O)CCNCc1ccc(-c2ccc3ncnc(Nc4ccc(OCc5cccc(F)c5)c(Cl)c4)c3c2)o1 [Lapatinib] (partner 2 µM)
Procedure, shortened: as §1

YM155 + Pemetrexed = compound: COCC[n+]1c2c(n(Cc3cnccn3)c1C)C(=O)c1ccccc1C2=O [YM155] + Nc1nc2[nH]cc(CCc3ccc(C(=O)N[C@@H](CCC(=O)O)C(=O)O)cc3)c2c(=O)[nH]1 [Pemetrexed] (partner 0.2 µM)
Procedure, shortened: as §1

Cell Line | relative viability (Quizartinib + Foretinib; first compound 0.001 µM) | relative viability (Quizartinib + Foretinib; first compound 0.003162 µM) | relative viability (Quizartinib + Foretinib; first compound 0.01 µM) | relative viability (Quizartinib + Foretinib; first compound 0.03162 µM) | relative viability (Quizartinib + Foretinib; first compound 0.1 µM) | relative viability (YM155 + OSI-027; first compound 0.002 µM) | relative viability (YM155 + OSI-027; first compound 0.006325 µM) | relative viability (YM155 + OSI-027; first compound 0.02 µM) | relative viability (YM155 + OSI-027; first compound 0.06325 µM) | relative viability (YM155 + Lapatinib; first compound 0.006325 µM) | relative viability (YM155 + Lapatinib; first compound 0.02 µM) | relative viability (YM155 + Lapatinib; first compound 0.06325 µM) | relative viability (YM155 + Pemetrexed; first compound 0.002 µM) | relative viability (YM155 + Pemetrexed; first compound 0.006325 µM) | relative viability (YM155 + Pemetrexed; first compound 0.02 µM) | relative viability (YM155 + Pemetrexed; first compound 0.06325 µM) | relative viability (YM155 + Lapatinib; first compound 0.002 µM)
NCI-H1793 | 0.728 | 0.59 | 0.797 | 0.759 | 0.729 | 0.242 | 0.308 | 0.259 | 0.269 | 0.584 | 0.606 | 0.479 | 0.708 | 0.896 | 1.03 | 0.954 | –
NCI-H727 | 0.71 | 0.877 | 0.838 | 0.801 | 0.871 | 0.473 | 0.612 | 0.703 | 0.595 | 0.704 | 1.01 | 0.953 | – | – | – | – | 0.614
SK-LU-1 | 0.779 | 0.76 | 0.943 | 0.83 | 0.985 | 0.358 | 0.316 | 0.396 | 0.348 | 0.85 | 0.971 | 0.653 | 0.946 | 0.956 | 0.91 | 0.684 | 0.835
PC-14 | 0.844 | 0.893 | 0.973 | 0.953 | 0.971 | 0.788 | 0.901 | 0.829 | 0.371 | 0.295 | 0.297 | 0.355 | 0.126 | 0.136 | 0.148 | 0.141 | 0.306
NCI-H1437 | 0.719 | 1.16 | 1.28 | 1.07 | 0.949 | 0.838 | 0.844 | 0.871 | 0.783 | 0.784 | 0.767 | 0.708 | 0.297 | 0.305 | 0.33 | 0.234 | 0.72
ABC-1 | 0.64 | 0.993 | 1.1 | 0.929 | 0.846 | 0.491 | 0.477 | 0.282 | 0.154 | – | 1.18 | 0.518 | – | – | – | – | 1.13
EBC-1 | 0.0847 | 0.105 | 0.0907 | 0.133 | 0.121 | – | – | – | – | 0.203 | 0.208 | 0.196 | – | – | – | – | 0.229
SK-MES-1 | 0.789 | 0.901 | 0.972 | 0.925 | 0.939 | 0.582 | 0.712 | 0.628 | 0.19 | 0.476 | 0.442 | 0.473 | 0.937 | 1.03 | 0.955 | 0.291 | 0.468
LK-2 | 1.29 | – | 1.03 | 1.33 | 1.43 | 0.187 | 0.21 | 0.214 | 0.201 | 0.966 | 0.94 | 0.885 | 0.276 | 0.287 | 0.263 | 0.364 | 0.893
NCI-H2085 | 0.868 | 0.853 | 1.2 | 0.873 | 0.883 | 0.742 | 0.783 | 0.809 | 0.421 | 0.752 | 0.614 | 0.315 | 0.705 | 0.884 | 0.911 | 0.869 | 0.746
NCI-H2087 | – | 1.05 | 1.12 | 0.941 | 1.07 | 0.492 | 0.567 | 0.715 | 0.618 | 1.01 | 1.12 | 0.708 | 0.639 | 0.677 | 0.685 | 0.604 | 1.26
NCI-H2347 | 0.655 | 0.963 | 0.638 | 0.892 | 0.938 | 0.371 | 0.504 | 0.421 | 0.421 | 0.914 | 0.997 | 0.598 | 0.542 | 0.407 | 0.436 | 0.39 | 0.917
HOP-62 | 0.907 | 1.09 | 1.22 | 1.07 | 1.09 | 0.807 | 0.847 | 0.899 | 0.864 | 1.02 | 0.973 | 0.961 | 0.372 | 0.365 | 0.325 | 0.289 | 0.831
SW 1573 | 0.946 | 0.886 | 0.896 | 1.02 | 1.04 | 0.549 | 0.705 | 0.406 | 0.0803 | 1.01 | 1.21 | 0.858 | 0.867 | 0.835 | 0.362 | 0.0865 | 1.1
IA-LM | 1.05 | 1.01 | 1.17 | 1.14 | 1.02 | – | – | – | – | 0.741 | 0.652 | 0.283 | – | – | – | – | 0.781
HCC-44 | – | – | – | – | – | 0.45 | 0.608 | 0.58 | 0.304 | 0.998 | 1.02 | 1.08 | 0.615 | 0.722 | 0.624 | 0.643 | 0.994
NCI-H522 | – | – | – | – | – | 0.752 | 0.599 | 0.715 | 0.753 | – | – | – | 0.841 | 0.938 | 0.92 | 0.899 | –
LCLC-103H | 0.786 | 0.7 | 0.8 | 0.788 | 0.995 | 0.465 | 0.436 | 0.408 | 0.464 | – | – | – | 0.473 | 0.453 | 0.416 | 0.463 | –
NCI-H1792 | – | – | – | – | – | 0.743 | 0.889 | 0.677 | 0.83 | 0.92 | 0.943 | 0.895 | 0.713 | 0.762 | 0.805 | 0.971 | 0.95
A549 | 0.949 | 0.975 | 1.08 | 0.818 | 1.05 | – | – | – | – | 0.872 | 0.598 | 0.0781 | – | – | – | – | 0.93
NCI-H1623 | 0.694 | 0.884 | 0.831 | 0.844 | 0.859 | 0.469 | 0.456 | 0.471 | 0.701 | – | – | – | – | – | – | – | –
Calu-6 | 0.74 | 0.779 | 0.972 | 0.88 | 0.899 | – | – | – | – | 0.992 | 0.271 | 0.143 | – | – | – | – | 1.04
ChaGo-K-1 | 0.974 | 0.911 | 0.959 | 0.866 | 0.949 | 0.474 | 0.536 | 0.549 | 0.662 | – | – | – | 0.261 | 0.243 | 0.26 | 0.254 | –
NCI-H441 | 1.23 | 0.923 | 1.13 | – | 0.914 | 0.468 | 0.496 | 0.537 | 0.381 | – | – | – | 0.249 | 0.267 | 0.293 | 0.198 | –
